# Where “and” joins values, the source holds several entries; their conditions need not be identical. Identical values can stand only once.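 Test compounds were applied to cells in 96-well plates for 48 hours at 5 doses. GI50 is the concentration that inhibits growth by half. TGI denotes the concentration required for complete inhibition of growth.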
# System: MDA-MB-231 breast
# Assay: growth of human tumour cells (NCI), 48 h
SMILES,TGI [µM],GI50 [µM]
C=CCC1(c2ccc(OC)cc2)C=CC(=O)CC1 (centres undefined),> 100,–
COC(=O)[C@]12CC[C@@H](C)[C@H](C)[C@@H]1C1=CC[C@@H]3[C@@]4(C)C[C@@H](O)[C@H](O)[C@@](C)(CO)C4=CC[C@@]3(C)[C@]1(C)CC2,34.4,16.3
Cc1nc(N)sc1N=Nc1ccccc1Br,67,–
NS(=O)(=O)c1ccc(N=Nc2c(O)c(C(=O)O)cc3ccccc23)cc1,> 100,–
Cc1c(N(C)C)ccc2c(=O)c3cccc(CC(=O)O)c3oc12,> 100,–
CC(NCCC(c1ccccc1)c1ccccc1)c1ccccc1 (centres undefined),5.74,2.17
C/C(N=NC(=S)N1CC2CCC(CC2)C1)=C1\C=CC=CN1O,> 100,–
O=C(Nc1ccc(Br)cc1F)c1cc(Cl)ccc1O,5.23,0.554
S=c1[nH]c(=S)c2cc3ccccc3nc2[nH]1,> 100,51
CCC[CH2][Sn]([CH2]CCC)([O]C(=O)c1ccc(OC)c(OC)c1OC)[O][Sn]([CH2]CCC)([CH2]CCC)[O]C(=O)c1ccc(OC)c(OC)c1OC,1.89,0.586

# System: MOLT-4 leukemia
# Assay: growth of human tumour cells (NCI), 48 h
SMILES,GI50 [µM],TGI
O=C(Cc1ccc(F)c(Cl)c1)Nc1cc(C2(C(F)(F)F)CC2)nn1CC1CCCCC1,3.37,9.57 µM
N#Cc1nn(-c2cc(=O)[nH]c3ccc(Cl)cc23)c(N)c1C#N,> 100,> 100 µM
NC(N)=NCCCC(=O)O,–,> 100 µM
CCN1CCN(c2cc(C)c3cc(NC(=O)c4ccc(OC)c(OC)c4)ccc3n2)CC1,6.21,88.9 µM
COC(=O)c1c2c(c(C)[n+]([O-])c1C)C(=O)C=C(NCc1ccc(F)cc1)C2=O,0.858,3.09 µM
CCCC(=O)Nc1cn(COC)c(C(=O)N2C[C@@H]3C[C@]34C2=CC(=O)c2[nH]cc(C)c24)n1,1.19,3.8 µM and 21.2 µM
CNCCOC(=O)/C=C1\CC[C@H]2[C@@H]([C@@H](O)C(=O)[C@@H]3[C@]2(C)CC[C@H](O)[C@]3(C)C(=O)OC)[C@H]1C,0.212,0.543 µM
Cc1nnc(Nc2ccc(NC(=O)Nc3ccc(Cl)cc3)cc2)c2ccccc12,2.36,6 µM
CC(=O)ON1CCCC(P(=O)(OCCSC(=O)C(C)(C)C)OCCSC(=O)C(C)(C)C)C1=O (centres undefined),0.854,11.5 µM
C=CCC1(c2ccc(OC)cc2)C=CC(=O)CC1 (centres undefined),–,> 100 µM
COC(=O)[C@]12CC[C@@H](C)[C@H](C)[C@@H]1C1=CC[C@@H]3[C@@]4(C)C[C@@H](O)[C@H](O)[C@@](C)(CO)C4=CC[C@@]3(C)[C@]1(C)CC2,15.5,31.7 µM
Cc1nc(N)sc1N=Nc1ccccc1Br,–,> 100 µM
NS(=O)(=O)c1ccc(N=Nc2c(O)c(C(=O)O)cc3ccccc23)cc1,–,> 100 µM
Cc1c(N(C)C)ccc2c(=O)c3cccc(CC(=O)O)c3oc12,–,> 100 µM
CC(NCCC(c1ccccc1)c1ccccc1)c1ccccc1 (centres undefined),2.59,7.15 µM
C/C(N=NC(=S)N1CC2CCC(CC2)C1)=C1\C=CC=CN1O,–,6.46 µM
O=C(Nc1ccc(Br)cc1F)c1cc(Cl)ccc1O,1.76,5.11 µM
S=c1[nH]c(=S)c2cc3ccccc3nc2[nH]1,4.68,> 100 µM
CCC[CH2][Sn]([CH2]CCC)([O]C(=O)c1ccc(OC)c(OC)c1OC)[O][Sn]([CH2]CCC)([CH2]CCC)[O]C(=O)c1ccc(OC)c(OC)c1OC,0.0804,2.34 µM

# System: NCI-H460 lung
# Assay: growth of human tumour cells (NCI), 48 h
SMILES,GI50 [µM],TGI
O=C(Cc1ccc(F)c(Cl)c1)Nc1cc(C2(C(F)(F)F)CC2)nn1CC1CCCCC1,3.28,8.41 µM
N#Cc1nn(-c2cc(=O)[nH]c3ccc(Cl)cc23)c(N)c1C#N,> 100,> 100 µM
NC(N)=NCCCC(=O)O,–,> 100 µM
CCN1CCN(c2cc(C)c3cc(NC(=O)c4ccc(OC)c(OC)c4)ccc3n2)CC1,10.5,31.3 µM
COC(=O)c1c2c(c(C)[n+]([O-])c1C)C(=O)C=C(NCc1ccc(F)cc1)C2=O,0.493,2 µM
CCCC(=O)Nc1cn(COC)c(C(=O)N2C[C@@H]3C[C@]34C2=CC(=O)c2[nH]cc(C)c24)n1,2.44,13.9 µM and 5.08 µM
CNCCOC(=O)/C=C1\CC[C@H]2[C@@H]([C@@H](O)C(=O)[C@@H]3[C@]2(C)CC[C@H](O)[C@]3(C)C(=O)OC)[C@H]1C,0.201,0.429 µM
Cc1nnc(Nc2ccc(NC(=O)Nc3ccc(Cl)cc3)cc2)c2ccccc12,3.46,11.7 µM
CC(=O)ON1CCCC(P(=O)(OCCSC(=O)C(C)(C)C)OCCSC(=O)C(C)(C)C)C1=O (centres undefined),1.28,19.9 µM
C=CCC1(c2ccc(OC)cc2)C=CC(=O)CC1 (centres undefined),–,> 100 µM
COC(=O)[C@]12CC[C@@H](C)[C@H](C)[C@@H]1C1=CC[C@@H]3[C@@]4(C)C[C@@H](O)[C@H](O)[C@@](C)(CO)C4=CC[C@@]3(C)[C@]1(C)CC2,17.1,33.8 µM
Cc1nc(N)sc1N=Nc1ccccc1Br,–,> 67.4 µM
NS(=O)(=O)c1ccc(N=Nc2c(O)c(C(=O)O)cc3ccccc23)cc1,–,> 100 µM
Cc1c(N(C)C)ccc2c(=O)c3cccc(CC(=O)O)c3oc12,–,> 100 µM
CC(NCCC(c1ccccc1)c1ccccc1)c1ccccc1 (centres undefined),1.71,3.26 µM
C/C(N=NC(=S)N1CC2CCC(CC2)C1)=C1\C=CC=CN1O,–,42.7 µM
O=C(Nc1ccc(Br)cc1F)c1cc(Cl)ccc1O,0.487,> 66.5 µM
S=c1[nH]c(=S)c2cc3ccccc3nc2[nH]1,73.2,> 100 µM
CCC[CH2][Sn]([CH2]CCC)([O]C(=O)c1ccc(OC)c(OC)c1OC)[O][Sn]([CH2]CCC)([CH2]CCC)[O]C(=O)c1ccc(OC)c(OC)c1OC,0.895,2.55 µM

# — PubChem BioAssay (NCI)
